The structures appear in SMILES notation. Structures can show the parent of a compound that is named as a salt.

In general, melting point refers to the temperature, or range, at which the solid turns liquid. With `CCN1CCCC1CNC(=O)Cc1cccc(-c2ccc3c(=O)c(C(=O)NC)c(N)n(CC)c3n2)c1` (stereo not drawn) (as salt: HCl) [compound 62, 2-amino-1-ethyl-7-[3-(2-{[(1-ethylpyrrolidin-2-yl)methyl]amino}-2-oxoethyl)phenyl]-N-methyl-4-oxo-1,4-dihydro-1,8-naphthyridine-3-carboxamide], the melting point stood at 213 °C. For `CCn1c(N)c(C(=O)NC)c(=O)c2ccc(-c3cccc(CC(=O)Nc4ccccn4)c3)nc21` (as salt: HCl) [compound 63, 2-amino-1-ethyl-N-methyl-4-oxo-7-{3-[2-oxo-2-(pyrid-2-ylamino)ethyl]-phenyl}-1,4-dihydro-1,8-naphthyridine-3-carboxamide] the value was 176 °C; for `CCn1c(N)c(C(=O)NC)c(=O)c2ccc(-c3ccc(CCNc4ccccn4)cc3)nc21` (as salt: HCl) [compound 64, 2-amino-1-ethyl-N-methyl-4-oxo-7-{4-[2-(pyrid-2-ylamino)ethyl]phenyl}-1,4-dihydro-1,8-naphthyridine-3-carboxamide], 242 °C; for `CCn1c(N)c(C(=O)NC)c(=O)c2ccc(-c3ccc(CC(=O)NC[C@H]4CCCN4CCF)cc3)nc21` (as salt: hydrochloride) [compound 27, 2-amino-1-ethyl-7-{4-[2-({[(2R)-1-(2-fluoroethyl)pyrrolidin-2-yl]methyl}-amino)-2-oxoethyl]phenyl}-N-methyl-4-oxo-1,4-dihydro-1,8-naphthyridine-3-carboxamide], 180 °C. `CCn1c(N)c(C(=O)NC)c(=O)c2ccc(-c3ccc(CC(=O)NCCOC)cc3)nc21` [compound 9, 2-amino-1-ethyl-7-(4-{2-[(2-methoxyethyl)amino]-2-oxoethyl}phenyl)-N-methyl-4-oxo-1,4-dihydro-1,8-naphthyridine-3-carboxamide] showed a melting point of 262 °C. `CCn1c(N)c(C(=O)NC)c(=O)c2ccc(-c3ccc(CC(=O)NC4CC4)cc3)nc21` [compound 10, 2-amino-7-{4-[2-(cyclopropylamino)-2-oxoethyl]phenyl}-1-ethyl-N-methyl-4-oxo-1,4-dihydro-1,8-naphthyridine-3-carboxamide]: the melting point is greater than 260 °C. For `CCn1c(N)c(C(=O)NC)c(=O)c2ccc(-c3ccc(CC(=O)NC(C)C)cc3)nc21` [compound 11, 2-amino-1-ethyl-N-methyl-7-(4-{2-[(1-methylethyl)amino]-2-oxoethyl}-phenyl)-4-oxo-1,4-dihydro-1,8-naphthyridine-3-carboxamide] the value was 315 °C; for `CCn1c(N)c(C(=O)NC)c(=O)c2ccc(-c3ccc(CC(=O)Nc4cnccn4)cc3)nc21` [compound 13, 2-amino-1-ethyl-N-methyl-4-oxo-7-{4-[2-oxo-2-(pyrazin-2-ylamino)ethyl]-phenyl}-1,4-dihydro-1,8-naphthyridine-3-carboxamide], 290 °C; for `CCN1CCC[C@H]1CNC(=O)Cc1ccc(-c2ccc3c(=O)c(C(=O)NC)c(N)n(CC)c3n2)cc1` [compound 15, 2-amino-1-ethyl-7-{4-[2-({[(2S)-1-ethylpyrrolidin-2-yl]methyl}amino)-2-oxoethyl]phenyl}-N-methyl-4-oxo-1,4-dihydro-1,8-naphthyridine-3-carboxamide], 262 °C. Next, `CCn1c(N)c(C(=O)NC)c(=O)c2ccc(-c3ccc(CC(=O)Nc4ccccn4)nc3)nc21` [compound 21, 2-amino-1-ethyl-N-methyl-4-oxo-7-{6-[2-oxo-2-(pyrid-2-ylamino)-ethyl]pyrid-3-yl}-1,4-dihydro-1,8-naphthyridine-3-carboxamide]: 266 °C; `CCn1c(N)c(C(=O)NC)c(=O)c2ccc(-c3ccc(CC(=O)NC[C@H]4CCCN4S(C)(=O)=O)cc3)nc21` [compound 28, 2-amino-1-ethyl-N-methyl-7-{4-[2-({[(2R)-1-(methylsulfonyl)pyrrolidin-2-yl]methyl}amino)-2-oxoethyl]phenyl}-4-oxo-1,4-dihydro-1,8-naphthyridine-3-carboxamide]: greater than 260 °C.

On to `CCn1c(N)c(C(=O)NC)c(=O)c2ccc(-c3ccc(CC(=O)NC[C@H]4CCCN4CC(F)(F)F)cc3)nc21` [compound 30, 2-amino-1-ethyl-N-methyl-4-oxo-7-{4-[2-oxo-2-({[(2R)-1-(2,2,2-trifluoroethyl)pyrrolidin-2-yl]methyl}amino)ethyl]phenyl}-1,4-dihydro-1,8-naphthyridine-3-carboxamide], for which the melting point is greater than 260 °C.

On to `CCn1c(N)c(C(=O)NC)c(=O)c2ccc(-c3ccc(CC(=O)NCCc4cccn4C)cc3)nc21` [compound 42, 2-amino-1-ethyl-N-methyl-7-[4-(2-{[2-(1-methyl-1H-pyrrol-2-yl)-ethyl]amino}-2-oxoethyl)phenyl]-4-oxo-1,4-dihydro-1,8-naphthyridine-3-carboxamide], for which the melting point worked out at 252 °C. The molecule `CCN1CCCC1CNC(=O)CCc1ccc(-c2ccc3c(=O)c(C(=O)NC)c(N)n(CC)c3n2)cc1` (stereo not drawn) [compound 46, 2-amino-1-ethyl-7-[4-(3-{[(1-ethylpyrrolidin-2-yl)methyl]amino}-3-oxopropyl)phenyl]-N-methyl-4-oxo-1,4-dihydro-1,8-naphthyridine-3-carboxamide] came in with a melting point of 218 °C.

Regarding `CCN1CCCC1CNC(=O)Cc1ccc(-c2ccc3c(=O)c(C(=O)NC)c(N)n(CC(F)(F)F)c3n2)cc1` (stereo not drawn) [compound 49, 2-amino-7-[4-(2-{[(1-ethylpyrrolidin-2-yl)methyl]amino}-2-oxoethyl)-phenyl]-N-methyl-4-oxo-1-(2,2,2-trifluoroethyl)-1,4-dihydro-1,8-naphthyridine-3-carboxamide], the melting point amounted to 300 °C.

The molecule `CCN1CCC[C@@H]1CNC(=O)Cc1ccc(-c2ccc3c(=O)c(C(=O)NC)c(N)n(CC(C)C)c3n2)cc1` [compound 53, 2-amino-7-{4-[2-({[(2R)-1-ethylpyrrolidin-2-yl]methyl}amino)-2-oxoethyl]-phenyl}-N-methyl-1-(2-methylpropyl)-4-oxo-1,4-dihydro-1,8-naphthyridine-3-carboxamide] returned a melting point of 233 °C.

In turn, `CCN1CCC[C@@H]1CNC(=O)Cc1nc(-c2ccc3c(=O)c(C(=O)NC)c(N)n(CC)c3n2)cs1` [compound 55, 2-amino-1-ethyl-7-{2-[2-({[(2R)-1-ethylpyrrolidin-2-yl]methyl}amino)-2-oxoethyl]-1,3-thiazol-4-yl}-N-methyl-4-oxo-1,4-dihydro-1,8-naphthyridine-3-carboxamide] returned a melting point of 214 °C. `CCN1CCC[C@@H]1CNC(=O)Cc1ccc(-c2ccc3c(=O)c(C(=O)NC)c(N)n(CC)c3n2)c(F)c1` [compound 56, 2-amino-1-ethyl-7-{4-[2-({[(2R)-1-ethylpyrrolidin-2-yl]methyl}amino)-2-oxoethyl]-2-fluorophenyl}-N-methyl-4-oxo-1,4-dihydro-1,8-naphthyridine-3-carboxamide] had a melting point of 253 °C. The molecule `CCN1CCCC1CNC(=O)Cc1ccc(-c2ccc3c(=O)c(C(=O)NC)c(N)n(CC)c3n2)cc1F` (stereo not drawn) [compound 58, 2-amino-7-[3-fluoro-4-(2-{[(1-ethylpyrrolidin-2-yl)methyl]amino}-2-oxoethyl)phenyl]-1-ethyl-N-methyl-4-oxo-1,4-dihydro-1,8-naphthyridine-3-carboxamide] displayed a melting point of 275 °C. `CCN1CCCC1CNC(=O)Cc1ccc(-c2ccc3c(=O)c(C(=O)NC)c(N)n(CC)c3n2)cc1C` (stereo not drawn) [compound 59, 2-amino-7-[3-methyl-4-(2-{[(1-ethylpyrrolidin-2-yl)methyl]amino}-2-oxoethyl)phenyl]-1-ethyl-N-methyl-4-oxo-1,4-dihydro-1,8-naphthyridine-3-carboxamide] returned a melting point of 277 °C. Next, `CCN1CCCC1CNC(=O)Cc1ccc(-c2ccc3c(=O)c(C(=O)NC)c(N)n(CC)c3n2)c(C)c1` (stereo not drawn) [compound 61, 2-amino-1-ethyl-7-[4-(2-{[(1-ethylpyrrolidin-2-yl)methyl]amino}-2-oxoethyl)-2-methylphenyl]-N-methyl-4-oxo-1,4-dihydro-1,8-naphthyridine-3-carboxamide]: 178 °C.
